The nature of data set [1]: Pharmacokinetics after 1-hour intravenous infusion (non-compartmental). In kind it is in vivo, human. The settings on record: for half-life: across all dose levels, read-out: Terminal disposition phase half-life. The procedure:
Subasumstat PK were evaluated after the first dose on C1D1 and cycle 1 day 8 (C1D8). The parameters included maximum observed plasma concentration (Cmax), time to first occurrence of Cmax, area under the plasma concentration–time curve from time 0 to the last measurable concentration (AUC0–t) or from time 0 extrapolated to time infinity (AUC0–∞), terminal disposition phase half-life, total clearance, and volume of distribution at steady state. PK parameters were estimated from concentration–time profiles for the PK analysis set, using non-compartmental methods, with Phoenix WinNonlin (RRID: SCR_024504).

In data set [2] the test system is MSS colorectal cancer and non-squamous NSCLC. Set-up: method as in ref 18 = [18]; 18. Goel S , Ulahannan SV , Olszanski AJ , LoRusso P , Sanborn RE , Sharma S , . A phase 1b, multicenter, dose-escalation study of subasumstat (TAK-981) in combination with pembrolizumab in patients. The settings on record: in combination with pembrolizumab, cited from earlier work.
The test system of data set [3] is advanced/metastatic solid tumors and relapsed/refractory hematologic malignancies. Kind of data set: Clinical activity (RECIST v1.1 / Lugano criteria). In kind it is in vivo, human. The settings on record: for DCR: 95% CI; for Patients with best response of SD: 90 mg twice weekly. The method, then: Disease response and progression were assessed for up to 48 months using CT and/or MRI scans with intravenous contrast and ^18fluorodeoxyglucose-PET imaging according to RECIST v1.1 criteria for solid tumors or Lugano criteria for lymphoma response ([21]).
It was anticipated that approximately 70 DLT-evaluable patients would be enrolled for dose escalation. The safety analysis set included all patients who received at least one dose, even if incomplete, of subasumstat. The tumor response–evaluable set included patients who received at least one dose of subasumstat, had sites of measurable disease at baseline and one post-baseline disease assessment, or discontinued treatment because of symptomatic deterioration or death prior to post-baseline evaluation. The overall response rate (ORR) was defined as the proportion of patients who achieved complete response and partial response (PR) during the study. The disease control rate (DCR) was defined as the proportion of patients who achieved […] as per RECIST v1.1 for solid tumors or Lugano classification for lymphomas. Both ORR and DCR were estimated with two-sided 95% exact binomial confidence intervals (CI). Progression-free survival was summarized descriptively using the Kaplan–Meier method.

The subject of another data set is NK cells and T cells. Kind of data set: NK- and T-cell activation (CD69+ cells) in peripheral blood by flow cytometry. In kind it is in vivo, human. The method, then:
Blood samples for subasumstat–SUMO adduct formation and SUMO2/3 inhibition assessments were collected before dose and at 1, 4, and 8 hours after the infusion on C1D1 and C1D8. Blood samples for additional biomarker analyses were collected before dose on C1D1 and C1D8 and at 4, 8, and 24 hours after infusion on C1D1 and C1D8. Skin biopsies (used as surrogate tissue for solid tumors) were collected at screening and on C1D8 at 2 hours (±30 minutes) after end of infusion, and tumor biopsies were collected at screening and cycle 2 day 8 (C2D8; +7 days; whenever possible). […] Activation of the IFNI pathway was assessed in peripheral blood by analysis of gene expression data (PanCancer IO 360 panel by NanoString for phase I and whole-transcriptome RNA sequencing data for phase II). […] These seven IFNI-regulated genes were selected prior to the trial, based on in vitro studies of the effect of subasumstat on human blood from 10 healthy donors analyzed on the NanoString PanCancer IO 360 panel. Plasma chemokines and cytokines were measured using the MesoScale Discovery platform (pro-inflammatory and chemokine panels, BioAgilytix). […] Tumor PD-L1 expression level was assessed in paired tumor biopsies using the 22C3 PD-L1 IHC assay; combined positive score (CPS) was calculated for baseline and on-treatment tumor samples. […]
For orientation: In flow cytometry, cells or beads pass a laser one at a time.

The subject of another data set is macrophages and NK cells. Further details: method as in PMID 35226739. The settings on record: IFNI-dependent innate immune activation; cited from earlier work.
The mark [4] stands for this setting: phase II NSCLC expansion cohort.
[5] abbreviates: phase II cervical cancer expansion cohort.

Like-named read-outs stand apart in the source and are kept apart here.

On to `Cc1sc(C(=O)c2cncnc2N[C@@H]2C[C@H](COS(N)(=O)=O)[C@@H](O)C2)cc1[C@@H]1NCCc2ccc(Cl)cc21` [subasumstat], for which the “Time of maximum plasma and blood concentrations” value in data set [1] (after dose (end of infusion), intravenous, C1D1 and C1D8, phase I) is “approximately 1 hour”. Further, in data set [1] (dose range 3 to 120 mg, C1D1 and C1D8), the “Increase of Cmax, AUC0–t and AUC0–∞ with dose” value is recorded as “approximately dose-proportional”. The half-life lay in the range of 3.35 to 9.31 h in data set [1] (human, intravenous, plasma) and 2.87 to 9.19 h in data set [1] (human, whole blood, intravenous, blood). The molecule further had a clearance in data set [1] (human, intravenous, stated as lower in blood compared with plasma, matrix of the range not stated explicitly) of 38.2 to 76 mL/min. Also, in data set [1] (human, intravenous, stated as lower in blood compared with plasma, matrix of the range not stated explicitly, read-out: Volume of distribution at steady state), the Vd is 13.7 to 38.8 L. The “Accumulation in plasma after multiple administrations” value in data set [1] (phase II, 90 mg twice weekly, C1D4, C1D8, C2D1, C2D8 vs C1D1) is on record as “no apparent accumulation”. Besides, the Antitumor activity entry in data set [2] (MSS colorectal cancer dose-expansion cohort) is listed as “no activity was observed”; in data set [2] (relapsed/refractory MSS colorectal cancer and CPI-exposed non-squamous NSCLC, dose-escalation cohort), “preliminary antitumor activity”. In addition, the “Patients with confirmed PR” value in data set [3] (99 response-evaluable patients, both phases, 40, 90 and 120 mg twice weekly) is “three”; in data set [3] (overall), 3%. In addition, in data set [3] (overall, 26 patients), the “Best response of SD” value was 26.3%. Further, the DCR in data set [3] (overall, n = 29/99, 20.57–39.29) worked out at 29.3%; in data set [3] (phase I, n = 21/75, 18.24–39.56) it was 28%; in data set [3] (phase II, n = 8/24, 15.63–55.32), 33%. Also, the Median progression-free survival in data set [3] (setting [4]) is on record as 6.06 months; in data set [3] (setting [5]), 3.78 months. Also, the “Patients with best response of SD” value in data set [3] (setting [4]) was “four of seven”; in data set [3] (setting [5]), “two of three”. In the data set with NK cells and T cells (C1D1 and C1D8), the “Time of peak CD69+ effect after infusion” value was determined as 24 h. Further, in the data set with NK cells and T cells (peripheral blood, both dose schedules and study phases), the “Dose from which percentage of CD69+ NK and T cells increased” value is recorded as not below 60 mg. Also, the “Killing of tumor cell targets” value in the data set with macrophages and NK cells was “enhanced killing of tumor cell targets”.

Usually half-life stands for the time in which the quantity being followed falls by half. By clearance is commonly meant the rate of elimination divided by the concentration. Read a high clearance as a high capacity for elimination.
